Data from US20240374667A1, “Prunella vulgaris extract and use thereof” (Clariant International Ltd, priority 2021, published 2024).

Tests used:
Format in all cases: cell-based
[1] = tested on: Human sensory neurons derived from hiPS cells; assay: Oxytocin release by sensory neurons after cortisol or histamine challenge (ELISA); conditions: 2 h pre-incubation
Description: Human sensory neurons are derived from hiPS cells (human induced Pluripotent Stem cells). hiPS cells are obtained by transfecting human fibroblasts cells. Cells were plated in 96 wells plates coated by a thin layer of Matrigel® (Corning; ref: 354277; batch: 9238002) in a differentiation medium (M1). Cells were incubated at 37° C. and 5% CO2 for 6 days and culture medium was changed every 2 days.
After 9 days of differentiation, medium M1 was replaced by a maturation medium for human sensory neurons (M2). Cells were incubated at 37° C. and 5% CO2 for 6 days and culture medium was changed every 2 days. On day 18 of culture (24 hours of pre-incubation) or day 19 of culture (2 hours of pre-incubation,) the medium was removed, and fresh medium with PVE or reference compound β-endorphin (Bachem; ref: H-2700; batch: 1069755) was added. The following conditions were done: control medium, control medium containing PVE at 50, 100 or 150 ppm, control medium containing beta-endorphin at 10 μM. Culture was incubated for 24 hours at 37° C. and 5% of CO2. After 2 or 24 hours of incubation, the culture plates were stimulated by cortisol (Sigma Aldrich; ref: H0888; batch: SLBN5690V) or histamine, each at 10 μM (Tocris; ref: 3545; batch: 1A/18942). After 30 minutes of stimulation, supernatants were removed and stored at −80° C. […]

[2] = tested on: Human sensory neurons derived from hiPS cells; assay: CGRP release by sensory neurons after cortisol or histamine challenge (ELISA); conditions: for CGRP release by sensory neurons: stress molecule alone at 10 μM, 30 minutes of stimulation, vs control
Description: Human sensory neurons are derived from hiPS cells (human induced Pluripotent Stem cells). hiPS cells are obtained by transfecting human fibroblasts cells. Cells were plated in 96 wells plates coated by a thin layer of Matrigel® (Corning; ref: 354277; batch: 9238002) in a differentiation medium (M1). Cells were incubated at 37° C. and 5% CO2 for 6 days and culture medium was changed every 2 days. After 9 days of differentiation, medium M1 was replaced by a maturation medium for human sensory neurons (M2). Cells were incubated at 37° C. and 5% CO2 for 6 days and culture medium was changed every 2 days. […] H-2700; batch: 1069755) was added. […] Culture was incubated for 24 hours at 37° C. and 5% of CO2. After 2 or 24 hours of incubation, the culture plates were stimulated by cortisol (Sigma Aldrich; ref: H0888; batch: SLB[…]) or histamine, each at 10 μM (Tocris; ref: 3545; batch: 1A/18942). After 30 minutes of stimulation, supernatants were removed and stored at -80° C. The amount of CGRP (antibodies-online; ref: abx257902; batch: E2001551F) released in supernatant after 30 minutes of stimulation were dosed by ELISA and compared to non-treated control. All values were expressed as mean +/-s.e.mean.

[3] = tested on: hair follicles dermal papilla cells (HFDPCs); assay: HFDPC proliferation under cortisone (WST test); conditions: cortisone 200 μM alone, 60 h
Description: (§1) 2.3. Evaluation of the ability of PVE to counteract the glucocorticoids-induced decrease proliferation of hair follicles cells and to restore the VEGF secretion HFDP cells were maintained in Follicle Dermal Papilla Cell Growth Medium (C-26501, PromoCell, Heidelberg, Germany) at 37° C., under 5%, CO2. Cells at passage 4 were plated in 24 well plate at 2×10^4 cells/well. HFDPCs at 60% confluence was pretreated with 5, 10 or 20 ppm of PVE for 2 h, and subsequently treated with 200 μM cortisone. After incubation for 60 h, cell culture supernatant was recovered, and secreted VEGF was measured using ELISA kit. For the cell proliferation assay, the WST test was used (EZ-Cytox, DogenBio, Korea). Absorbance was measured at 450 nm wavelength using microplate spectrophotometry.

[4] = tested on: hair follicles dermal papilla cells (HFDPCs); assay: VEGF secretion by HFDPC under cortisone (ELISA); conditions: cortisone 200 μM alone, 60 h
Description: as §1

Human hair follicles [5] = assay: Hair follicle pigmentation, Masson's Fontana staining; conditions: cortisol alone, 5 days
Description: (§2) Human hair follicles were removed from a fresh scalp/face skin biopsy of a person. After the depilation, isolated follicles were selected by microscopic observation to select only ones in anagen phase. They were randomized and placed in supplemented William's E medium (Penicillin/Streptomycin, L-glutamine (2 mM), hydrocortisone (0.027 μM), sodium selenite (10 ng/ml), transferrin (10 μg/ml) and insulin (10 μg/ml) and indicated treatment (control, cortisol at 100 μM, PVE at 50 or 150 ppm in presence or not of cortisol). After overnight fixation in paraformaldehyde solution (MM France, Brignais, France), samples were dehydrated and impregnated in paraffin using a dehydration automat (STP120 ThermoScientific™ Waltham, MA, USA). The Then, sections of […] were mounted on Superfrost® Gold slides before proceeding to Masson's Fontana staining. This staining is used to visualize melanin granules. Melanin is a non-lipid pigment, brown to black, present physiologically in hair, eyes, and skin.

Human hair follicles [6] = assay: Growth of isolated human hair follicles under cortisol (ex vivo culture, 5 days); conditions: cortisol 100 μM alone, day 1 to day 5
Description: Human hair follicles were removed from a fresh scalp/face skin biopsy of a person. After the depilation, isolated follicles were selected by microscopic observation to select only ones in anagen phase. They were randomized and placed in supplemented William's E medium (Penicillin/Streptomycin, L-glutamine (2 mM), hydrocortisone (0.027 μM), sodium selenite (10 ng/ml), transferrin (10 μg/ml) and insulin (10 μg/ml) and indicated treatment (control, cortisol at 100 μM, PVE at 50 or 150 ppm in presence or not of cortisol). Follicles were cultured at 37° C. under 5% CO2 and a relative humidity >95%. Medium was changed at day 1 and 3. The growth of isolated follicles was monitored for 5 days by daily photography using a stereomicroscope device (Carl Zeiss, Microscopy, France). The length of each follicle was measured using ImageJ software.

Human hair follicles [7] = assay: Hair follicle cell proliferation (Ki-67) and apoptosis (TUNEL) under cortisol; conditions: cortisol alone, five days, vs control
Description: Human hair follicles were removed from a fresh scalp/face skin biopsy of a person. After the depilation, isolated follicles were selected by microscopic observation to select only ones in anagen phase. They were randomized and placed in supplemented William's E medium (Penicillin/Streptomycin, L-glutamine (2 mM), hydrocortisone (0.027 μM), sodium selenite (10 ng/ml), transferrin (10 μg/ml) and insulin (10 μg/ml) and indicated treatment (control, cortisol at 100 μM, PVE at 50 or 150 ppm in presence or not of cortisol). To perform immunostaining, slide deparaffinization was manually conducted using successive baths of solvent. Heat-induced epitope retrieval was performed using the Dako Envision Flex solution (Agilent, Santa Clara, US). Ki-67 (dilution 1/500).Cell proliferation was studied by Ki-67 immunostainings realized on paraffin sections (mouse monoclonal anti-Ki-67, Dako™ M7240, Santa Clara, US), The apoptosis was studied by using click-iT® Plus Alexa 488 TUNEL assay (ThermoScientific™, C10617, Waltham, MA, USA) following supplier instructions. After TUNEL assay and Ki67 antibody incubation, slices were incubated one hour at room temperature with an Alexa 568 coupled secondary antibody (A11004, Thermo Fischer Scientific™, Waltham, MA, USA). Nuclei counterstain was done using Hoechst (Invitrogen, ref H3570) at 1/5000 for 5 minutes at RT. Slides were mounted in aqueous medium.

Human hair follicles [8] = assay: Hair follicle structure, HES staining; conditions: cortisol 100 μM alone, 5 days
Description: as §2, with “USA).” for “USA). The”, “Hematoxylin-eosin-saffron (HES)” for “Masson's Fontana”, “Hematoxylin-eosin-saffron (HES)” for “This staining is used to visualize melanin granules. Melanin”, “trichromatic coloration using nuclear, cytoplasmic” for “non-lipid pigment, brown to black, present physiologically in hair, eyes,”, “matrix colorants, usually used for the visualization of tissues.” for “skin.”

β-endorphin (YGGFMTSEKSQTPLVTLFKNAIIKNAYKKGE; Beta-endorphin; UniProt P01189 237-267, looked up)
oxytocin release by sensory neurons ([1]; then cortisol 10 μM challenge): no effect on the oxytocin release | oxytocin release by sensory neurons ([1]; then histamine 10 μM challenge): no effect on the oxytocin release | CGRP release by sensory neurons (sensory neuron excitation) ([2]; 2 h or 24 h pre-incubation, PVE 50, 100 or 150 ppm, beta-endorphin 10 μM, then cortisol 10 μM, 30 minutes): reduce the neuronal excitation at level similar to the control condition

NCCc1c[nH]cn1 [histamine]
CGRP release by sensory neurons [2]: strong increase of CGRP release

C[C@]12CCC(=O)C=C1CC[C@@H]1[C@@H]2C(=O)C[C@@]2(C)[C@H]1CC[C@]2(O)C(=O)CO [cortisone]
HFDPCs proliferation [3]: inhibits the HFDPCs proliferation | VEGF secretion by HFDPC [4]: reduced VEGF production

C[C@]12CCC(=O)C=C1CC[C@@H]1[C@@H]2[C@@H](O)C[C@@]2(C)[C@H]1CC[C@]2(O)C(=O)CO [cortisol]
hair follicle pigmentation (melanin granules) (Human hair follicles [5]): almost all the melanin granules disappeared | hair follicle growth (length) (Human hair follicles [6]): strongly reduced | apoptosis of hair follicle cells (TUNEL) (Human hair follicles [7]): induces apoptosis in cells | hair follicle cell proliferation (Ki-67) (Human hair follicles [7]): reduced cell proliferation | CGRP release by sensory neurons [2]: strong increase of CGRP release | hair follicle structure (dermal sheath, hair matrix) (Human hair follicles [8]): dramatically altered
